Source: paper PMC4536076, “Chemical Library Screening and Structure-Function Relationship Studies Identify Bisacodyl as a Potent and Selective Cytotoxic Agent Towards Quiescent Human Glioblastoma Tumor Stem-Like Cells” (PLoS ONE, 2015)
Counter-ions that a name gives are not always drawn. Like-named read-outs stand apart in the source and are kept apart here.

Experiments:
quiescent TG1 GSCs = system: quiescent TG1 GSCs
Protocol: (§1) Proliferating or quiescent TG1 GSCs were seeded (30 000 and 40 000 viable cells/well, respectively) into 96-well opaque bottom plates (Greiner) with the Biomek FX robot (Beckman Coulter). Each compound from the Prestwick Library was then added (final concentration: 50 μM; 1% DMSO). Each molecule was tested once. Negative control wells (12/96 per assay plate) contained cells treated with 1% DMSO (final concentration) and positive control wells (4/96 per assay plate) contained cells treated with the fungal toxin ophiobolin A (Sigma Aldrich) at 50 μM with 1% DMSO. […] Luminescence in each well was measured with the Victor3 plate reader (PerkinElmer).
(§2) Relative ATP levels in each well were determined by calculating the percentage of luminescent signal in the well with respect to the average signal measured in negative control wells.
(§3) Primary screen hits were further tested in duplicate, at two concentrations (50 and 5 μM) on proliferating and quiescent TG1 GSCs. Cell plating and treatment with compounds were as for the primary screen. Hit selection/confirmation criteria for quiescent cells were as described above.

proliferating TG1 GSCs = conditions: primary screen, 50 μM, 24 h
Protocol: as §1, §2, §3

Compound: CCC(C)(C)C(=O)O[C@H]1C[C@@H](C)C=C2C=C[C@H](C)[C@H](CC[C@@H]3C[C@@H](O)CC(=O)O3)[C@H]21 [Simvastatin]
- Activity on quiescent TG1 GSCs (hit compounds reducing ATP levels) (quiescent TG1 GSCs; primary screen, 50 μM, 24 h): yes

Compound: CC(C)C(=O)Nc1ccc([N+](=O)[O-])c(C(F)(F)F)c1 [Flutamide]
- Activity on quiescent TG1 GSCs (hit compounds reducing ATP levels) (quiescent TG1 GSCs; primary screen, 50 μM, 24 h): yes

Compound: Cc1cccc(C)c1NC(=O)CN1CCN(CCCC(c2ccc(F)cc2)c2ccc(F)cc2)CC1 [Lidoflazine]
- Activity on proliferating TG1 GSCs (hit compounds reducing ATP levels) (proliferating TG1 GSCs): yes

Compound: NC[C@H]1CC[C@H](C(=O)O)CC1 [Tranexamic acid]
- Activity on quiescent TG1 CSCs (hit compounds increasing ATP levels) (quiescent TG1 GSCs; primary screen, 50 μM, 24 h): yes

Compound: Clc1ccc(COC(Cn2ccnc2)c2ccc(Cl)cc2Cl)cc1 (stereo not drawn) [Econazole nitrate]
- Activity on quiescent TG1 GSCs (hit compounds reducing ATP levels) (quiescent TG1 GSCs; primary screen, 50 μM, 24 h): yes

Compound: Cc1cc(/C=C/c2ccc3cc(N(C)C)ccc3[n+]2C)c(C)n1-c1ccccc1.Cc1cc(/C=C/c2ccc3cc(N(C)C)ccc3[n+]2C)c(C)n1-c1ccccc1.O=C([O-])c1cc2ccccc2c(Cc2c(O)c(C(=O)[O-])cc3ccccc23)c1O [Pyvinium pamoate]
- Activity on quiescent TG1 GSCs (hit compounds reducing ATP levels) (quiescent TG1 GSCs; primary screen, 50 μM, 24 h): yes

Compound: CN(C)c1nc(N(C)C)nc(N(C)C)n1 [Altretamine]
- Activity on proliferating TG1 CSCs (hit compounds increasing ATP levels) (proliferating TG1 GSCs): yes

Compound: CN1CCCC(CC2c3ccccc3Sc3ccccc32)C1 (stereo not drawn) [Metixene hydrochloride]
- Activity on proliferating TG1 GSCs (hit compounds reducing ATP levels) (proliferating TG1 GSCs): yes

Compound: CC[C@@]1([C@H]2O[C@H]([C@H]3O[C@@](O)(CO)[C@H](C)C[C@@H]3C)C[C@H]2C)CC[C@H]([C@@]2(C)CC[C@]3(C[C@H](O)[C@@H](C)[C@@H]([C@H](C)[C@H](OC)[C@@H](C)C(=O)[O-])O3)O2)O1.[Na+] [Monensin sodium salt]
- Activity on quiescent TG1 GSCs (hit compounds reducing ATP levels) (quiescent TG1 GSCs; primary screen, 50 μM, 24 h): yes

Compound: C[C@@H]1[C@H](O)[C@@H](C)/C=C/C=C/CC/C=C/C=C/C=C/C=C/C(O[C@H]2O[C@H](C)[C@@H](O)[C@H](N)[C@@H]2O)CC2O[C@](O)(CC(O)C(O)CCC(O)CC(O)CC(O)CC(=O)O[C@H]1C)CC(O)C2C(=O)O (stereo partly drawn) [Nystatine]
- Activity on quiescent TG1 GSCs (hit compounds reducing ATP levels) (quiescent TG1 GSCs): yes

Compound: C[C@]12CC[C@H](O)C[C@H]1CC[C@@H]1[C@@H]2CC[C@]2(C)[C@@H](C3=CC(=O)OC3)CC[C@]12O [Digitoxigenin]
- Activity on quiescent TG1 GSCs (hit compounds reducing ATP levels) (quiescent TG1 GSCs; primary screen, 50 μM, 24 h): yes

Compound: CNCCC=C1c2ccccc2C=Cc2ccccc21 [Norcyclobenzaprine]
- Activity on proliferating TG1 GSCs (hit compounds reducing ATP levels) (proliferating TG1 GSCs): yes

Compound: CCc1cc(C(N)=S)ccn1 [Ethionamide]
- Activity on quiescent TG1 CSCs (hit compounds increasing ATP levels) (quiescent TG1 GSCs; primary screen, 50 μM, 24 h): yes

Compound: CNCCCC1c2ccccc2C=Cc2ccccc21 [Protriptyline hydrochloride]
- Activity on proliferating TG1 GSCs (hit compounds reducing ATP levels) (proliferating TG1 GSCs): yes

Compound: CCOc1ccc(Cc2nccc3cc(OCC)c(OCC)cc23)cc1OCC [Ethaverine hydrochloride]
- Activity on quiescent TG1 GSCs (hit compounds reducing ATP levels) (quiescent TG1 GSCs; primary screen, 50 μM, 24 h): yes

Compound: Fc1ccc(C(c2ccc(F)cc2)N2CCN(C/C=C/c3ccccc3)CC2)cc1 [Flunarizine dihydrochloride]
- Activity on quiescent TG1 GSCs (hit compounds reducing ATP levels) (quiescent TG1 GSCs; primary screen, 50 μM, 24 h): yes

Compound: CCC1(c2ccccc2)C(=O)NCNC1=O [Primidone]
- Activity on proliferating TG1 CSCs (hit compounds increasing ATP levels) (proliferating TG1 GSCs): yes

Compound: CN1C(=O)OC(C)(C)C1=O [Trimethadione]
- Activity on quiescent TG1 CSCs (hit compounds increasing ATP levels) (quiescent TG1 GSCs; primary screen, 50 μM, 24 h): yes

Compound: CC(C(=O)O)c1ccc(N2Cc3ccccc3C2=O)cc1 (stereo not drawn) [Indoprofen]
- Activity on proliferating TG1 GSCs (hit compounds reducing ATP levels) (proliferating TG1 GSCs): yes

Compound: [H]/N=C(\N/C(=N/[H])NCCCCCCNC(=N)NC(=N)Nc1ccc(Cl)cc1)Nc1ccc(Cl)cc1 [Chlorhexidine]
- Activity on proliferating TG1 GSCs (hit compounds reducing ATP levels) (proliferating TG1 GSCs): yes

Compound: CC[C@H](C)C(=O)O[C@H]1C[C@@H](C)C=C2C=C[C@H](C)[C@H](CC[C@@H]3C[C@@H](O)CC(=O)O3)[C@H]21 [Lovastatin]
- Activity on quiescent TG1 CSCs (hit compounds increasing ATP levels) (quiescent TG1 GSCs; primary screen, 50 μM, 24 h): yes

Compound: Cc1c(Cl)cccc1Nc1ccccc1C(=O)O [Tolfenamic acid]
- Activity on quiescent TG1 GSCs (hit compounds reducing ATP levels) (quiescent TG1 GSCs; primary screen, 50 μM, 24 h): yes

Compound: O=C(O)c1cc(-c2ccc(F)cc2F)ccc1O [Diflunisal]
- Activity on quiescent TG1 GSCs (hit compounds reducing ATP levels) (quiescent TG1 GSCs; primary screen, 50 μM, 24 h): yes

Compound: CC(C)(Sc1cc(C(C)(C)C)c(O)c(C(C)(C)C)c1)Sc1cc(C(C)(C)C)c(O)c(C(C)(C)C)c1 [Probucol]
- Activity on proliferating TG1 CSCs (hit compounds increasing ATP levels) (proliferating TG1 GSCs): yes

Compound: CO[C@H]1/C=C/O[C@@]2(C)Oc3c(C)c(O)c4c(O)c(c(/C=N/N5CCN(C)CC5)c(O)c4c3C2=O)NC(=O)/C(C)=C\C=C\[C@H](C)[C@H](O)[C@@H](C)[C@@H](O)[C@@H](C)[C@H](OC(C)=O)[C@@H]1C [Rifampicin]
- Activity on quiescent TG1 CSCs (hit compounds increasing ATP levels) (quiescent TG1 GSCs; primary screen, 50 μM, 24 h): yes

Compound: COc1cc(/C=C/C(=O)N2CCC=CC2=O)cc(OC)c1OC [Piperlongumine]
- Activity on proliferating TG1 GSCs (hit compounds reducing ATP levels) (proliferating TG1 GSCs): yes

Compound: CCCCCN(CCCCC)C(=O)C(CCC(=O)[O-])NC(=O)c1ccc(Cl)c(Cl)c1.[Na+] (stereo not drawn) [Lorglumide sodium salt]
- Activity on quiescent TG1 CSCs (hit compounds increasing ATP levels) (quiescent TG1 GSCs; primary screen, 50 μM, 24 h): yes
